Reference: publication PMC5576976 (Translational Oncology, 2017)
pIC50: −log10 of the molar value.

Target: IMP1 (insulin-like growth factor-2 mRNA-binding protein 1) (Homo sapiens, UniProt Q9NZI8)
Experiment: fluorescence anisotropy/polarization microplate assay

Sequence of IMP1 (insulin-like growth factor-2 mRNA-binding protein 1) (Q9NZI8 whole entry): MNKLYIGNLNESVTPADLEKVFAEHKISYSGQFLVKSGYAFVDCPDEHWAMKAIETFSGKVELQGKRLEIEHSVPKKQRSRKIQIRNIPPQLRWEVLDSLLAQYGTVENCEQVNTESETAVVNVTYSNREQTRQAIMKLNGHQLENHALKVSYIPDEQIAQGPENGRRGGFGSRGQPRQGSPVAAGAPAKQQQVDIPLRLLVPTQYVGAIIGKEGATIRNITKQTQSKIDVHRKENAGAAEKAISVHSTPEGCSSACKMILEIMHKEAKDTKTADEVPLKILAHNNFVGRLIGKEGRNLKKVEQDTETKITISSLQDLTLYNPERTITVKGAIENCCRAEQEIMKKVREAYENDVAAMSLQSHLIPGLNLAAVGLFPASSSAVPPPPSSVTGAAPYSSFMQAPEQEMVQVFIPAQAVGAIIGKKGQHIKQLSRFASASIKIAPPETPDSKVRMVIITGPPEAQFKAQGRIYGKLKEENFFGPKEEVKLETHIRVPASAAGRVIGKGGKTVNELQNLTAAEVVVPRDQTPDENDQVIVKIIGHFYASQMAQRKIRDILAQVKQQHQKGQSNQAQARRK

NC(=O)c1ccccc1N=Cc1ccc(Br)s1 [BTYNB, 2-{[(5-bromo-2-thienyl)methylene]amino}benzamide]
pIC50: 5.30
